According to patent US4487761A, “Dopamine β-hydroxylase inhibitors” (Merck & Co., Inc., priority 1982, dated 1984):

Biological target: T1, Dopamine β-hydroxylase (Bos taurus, UniProt P15101)
T1 construct: Dopamine β-hydroxylase was obtained from beef adrenal glands; from tissue; host or cells: beef adrenal glands
T1 sequence (P15101 1-610): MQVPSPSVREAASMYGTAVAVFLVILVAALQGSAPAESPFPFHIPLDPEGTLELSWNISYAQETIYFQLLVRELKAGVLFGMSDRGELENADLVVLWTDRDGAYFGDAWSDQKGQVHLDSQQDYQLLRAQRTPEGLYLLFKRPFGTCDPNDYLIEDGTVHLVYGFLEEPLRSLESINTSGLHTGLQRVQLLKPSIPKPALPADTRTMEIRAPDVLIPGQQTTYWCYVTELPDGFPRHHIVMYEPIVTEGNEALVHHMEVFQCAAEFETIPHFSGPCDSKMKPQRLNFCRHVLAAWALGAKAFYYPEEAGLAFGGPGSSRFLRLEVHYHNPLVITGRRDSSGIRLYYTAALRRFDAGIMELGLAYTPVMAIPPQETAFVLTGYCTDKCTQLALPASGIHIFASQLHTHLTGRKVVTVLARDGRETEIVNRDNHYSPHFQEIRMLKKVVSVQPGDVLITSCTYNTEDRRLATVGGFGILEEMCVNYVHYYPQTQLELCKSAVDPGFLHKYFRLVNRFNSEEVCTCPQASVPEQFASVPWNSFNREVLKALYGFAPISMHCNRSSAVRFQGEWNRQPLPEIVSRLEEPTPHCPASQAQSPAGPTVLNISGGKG
Assay: Dopamine β-Hydroxylase Inhibition Assay
Format: biochemical
Conditions: 5 mM tyramine, pH 5.5, 37° C., 10 minutes; enzyme from beef adrenal glands; read-out: I50 (inhibition median) (converted)
Protocol: Dopamine β-hydroxylase was obtained from beef adrenal glands. Minced adrenals were homogenized with 0.025M potassium phosphate buffer (pH--6.4) and centrifuged. The supernatant was adjusted to a final concentration of 1% Triton X-100 (Calbiochem. Inc.) by the addition of one-fourth volume of a 5% Triton X-100 solution and stirred at room temperature for 30 minutes. The Triton X-100 treated supernatant was centrifuged, and fractionated with a 66% aqueous ammonium sulfate solution. The resulting precipitate was homogenized in 0.025M potassium phosphate buffer (pH=6.4) and dialyzed. The dialysate was applied to a DE-52 Cellulose Column (Whatman Co.), pre-equilibrated with 0.005M potassium phosphate buffer (pH=6.4), and preloaded with about 2 cm of acid-washed activated carbon, located directly above the cellulose resin. […]
The assay for the dopamine β-hydroxylase inhibition was carried out in a 1 ml incubation mixture containing 5 mM tyramine (freashly prepared), 1.5 mM ascorbic acid (prepared monthly), 0.4 mM sodium fumarate, 0.045 mM pargyline, catalase ([…] per ml, 500 units) and 0.065M sodium acetate buffer, pH 5.5. […] The optical absorbance of the organic phase was measured at 280 nm. […]

Row | IC50 [nM] | SMILES
1 | ~262 | Cc1nc(O)c(O)cc1O [Compound II]
2 | ~158 | Cc1nc(O)c(O)c(CO)c1O [Compound I]
